According to ChEMBL document CHEMBL1201862, “PubChem BioAssay data set” (2004):
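Five concentrations, 48 hours, 96-well plates. Here, GI50 denotes the concentration required for 50% inhibition of growth.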 Active and inactive are the calls of the source. No stated cut-off is given here; in the data, active = GI50 up to about 1.1 µM and inactive = higher.

Key:
Assay in all cases: NCI-60 cell line screen, 48 h
[1] = tested on: 786-0
[2] = tested on: A549
[3] = tested on: ACHN
[4] = tested on: CAKI-1
[5] = tested on: CCRF-CEM
[6] = tested on: COLO 205
[7] = tested on: DLD-1
[8] = tested on: DMS-114
[9] = tested on: DMS-273
[10] = tested on: EKVX
[11] = tested on: HCC 2998
[12] = tested on: HCT-116
[13] = tested on: HCT-15
[14] = tested on: HL-60
[15] = tested on: HOP-62
[16] = tested on: HT-29
[17] = tested on: IGROV-1
[18] = tested on: K562
[19] = tested on: KM-20L2
[20] = tested on: KM12
[21] = tested on: LOX IMVI
[22] = tested on: LXFL 529
[23] = tested on: M14
[24] = tested on: M19-MEL
[25] = tested on: MOLT-4
[26] = tested on: Malme-3M
[27] = tested on: NCI-H226
[28] = tested on: NCI-H23
[29] = tested on: NCI-H460
[30] = tested on: NCI-H522
[31] = tested on: OVCAR-3
[32] = tested on: OVCAR-4
[33] = tested on: OVCAR-5
[34] = tested on: OVCAR-8
[35] = tested on: RXF 393
[36] = tested on: RXF 631
[37] = tested on: SF-268
[38] = tested on: SF-295
[39] = tested on: SF-539
[40] = tested on: SK-MEL-28
[41] = tested on: SK-MEL-2
[42] = tested on: SK-OV-3
[43] = tested on: SN12C
[44] = tested on: SNB-19
[45] = tested on: SR
[46] = tested on: SW-620
[47] = tested on: TK-10
[48] = tested on: U-251
[49] = tested on: UACC-257
[50] = tested on: UACC-62
[51] = tested on: UO-31
[52] = tested on: XF498
[53] = tested on: A498
[54] = tested on: HOP-18
[55] = tested on: HOP-92
[56] = tested on: RPMI-8226
[57] = tested on: SK-MEL-5
[58] = tested on: SNB-75
[59] = tested on: SNB-78

Compound: Cc1nc(-c2nc(C)c(C(=O)/C=C/c3ccc(N(C)C)cc3)s2)sc1C(=O)/C=C/c1ccc(N(C)C)cc1
- GI50 [1]: 54 µM (inactive)
- GI50 [2]: 44.2 µM (inactive)
- GI50 [3]: > 100 µM (inactive)
- GI50 [4]: > 100 µM (inactive)
- GI50 [5]: > 100 µM (inactive)
- GI50 [6]: > 100 µM (inactive)
- GI50 [7]: 29.5 µM (inactive)
- GI50 [8]: > 100 µM (inactive)
- GI50 [9]: 39.1 µM (inactive)
- GI50 [10]: > 100 µM (inactive)
- GI50 [11]: > 100 µM (inactive)
- GI50 [12]: 29.3 µM (inactive)
- GI50 [13]: 37.8 µM
- GI50 [14]: 46 µM (inactive)
- GI50 [15]: > 100 µM (inactive)
- GI50 [16]: > 10 µM (inactive)
- GI50 [17]: 31 µM (inactive)
- GI50 [18]: 33.4 µM (inactive)
- GI50 [19]: > 100 µM (inactive)
- GI50 [20]: 40.9 µM (inactive)
- GI50 [21]: 38.3 µM (inactive)
- GI50 [22]: 34.8 µM (inactive)
- GI50 [23]: 38.5 µM (inactive)
- GI50 [24]: 51.1 µM (inactive)
- GI50 [25]: > 100 µM (inactive)
- GI50 [26]: 66.4 µM (inactive)
- GI50 [27]: > 100 µM (inactive)
- GI50 [28]: > 100 µM (inactive)
- GI50 [29]: > 100 µM (inactive)
- GI50 [30]: 31.3 µM (inactive)
- GI50 [31]: > 100 µM (inactive)
- GI50 [32]: 46 µM (inactive)
- GI50 [33]: > 100 µM (inactive)
- GI50 [34]: > 100 µM (inactive)
- GI50 [35]: > 100 µM (inactive)
- GI50 [36]: > 100 µM (inactive)
- GI50 [37]: > 100 µM (inactive)
- GI50 [38]: 31.9 µM (inactive)
- GI50 [39]: 41.7 µM (inactive)
- GI50 [40]: 67.3 µM (inactive)
- GI50 [41]: > 100 µM (inactive)
- GI50 [42]: > 100 µM (inactive)
- GI50 [43]: > 100 µM (inactive)
- GI50 [44]: 64.1 µM (inactive)
- GI50 [45]: > 100 µM (inactive)
- GI50 [46]: 31.2 µM (inactive)
- GI50 [47]: > 100 µM (inactive)
- GI50 [48]: > 100 µM (inactive)
- GI50 [49]: > 100 µM (inactive)
- GI50 [50]: 18.5 µM (inactive)
- GI50 [51]: > 100 µM (inactive)
- GI50 [52]: 23.4 µM (inactive)

Compound: N#CC(/C(=N/NC(=O)C(=O)NN)C(=O)NC12CC3CC(CC(C3)C1)C2)c1ccccc1 (stereo not given)
- GI50 [1]: > 100 µM (inactive)
- GI50 [53]: > 100 µM (inactive)
- GI50 [2]: > 100 µM (inactive)
- GI50 [3]: > 100 µM (inactive)
- GI50 [4]: > 100 µM (inactive)
- GI50 [5]: > 100 µM (inactive)
- GI50 [6]: > 100 µM (inactive)
- GI50 [7]: > 100 µM (inactive)
- GI50 [8]: > 100 µM (inactive)
- GI50 [9]: > 100 µM (inactive)
- GI50 [10]: > 100 µM (inactive)
- GI50 [11]: > 100 µM (inactive)
- GI50 [12]: > 100 µM (inactive)
- GI50 [13]: > 100 µM
- GI50 [14]: > 100 µM (inactive)
- GI50 [54]: > 100 µM (inactive)
- GI50 [15]: > 100 µM (inactive)
- GI50 [55]: > 100 µM (inactive)
- GI50 [16]: > 100 µM (inactive)
- GI50 [17]: > 100 µM (inactive)
- GI50 [18]: > 100 µM (inactive)
- GI50 [19]: > 100 µM (inactive)
- GI50 [20]: > 100 µM (inactive)
- GI50 [21]: > 100 µM (inactive)
- GI50 [22]: > 100 µM (inactive)
- GI50 [23]: > 100 µM (inactive)
- GI50 [24]: > 100 µM (inactive)
- GI50 [25]: > 100 µM (inactive)
- GI50 [26]: > 100 µM (inactive)
- GI50 [27]: > 100 µM (inactive)
- GI50 [28]: > 100 µM (inactive)
- GI50 [29]: > 100 µM (inactive)
- GI50 [30]: > 100 µM (inactive)
- GI50 [31]: > 100 µM (inactive)
- GI50 [32]: > 100 µM (inactive)
- GI50 [33]: > 100 µM (inactive)
- GI50 [34]: > 100 µM (inactive)
- GI50 [56]: > 100 µM (inactive)
- GI50 [35]: > 100 µM (inactive)
- GI50 [36]: > 100 µM (inactive)
- GI50 [37]: > 100 µM (inactive)
- GI50 [38]: > 100 µM (inactive)
- GI50 [39]: > 100 µM (inactive)
- GI50 [40]: > 100 µM (inactive)
- GI50 [41]: > 100 µM (inactive)
- GI50 [57]: > 100 µM (inactive)
- GI50 [42]: > 100 µM (inactive)
- GI50 [43]: > 100 µM (inactive)
- GI50 [44]: > 100 µM (inactive)
- GI50 [58]: > 100 µM (inactive)
- GI50 [59]: > 100 µM (inactive)
- GI50 [45]: > 100 µM (inactive)
- GI50 [46]: > 100 µM (inactive)
- GI50 [47]: > 100 µM (inactive)
- GI50 [48]: > 100 µM (inactive)
- GI50 [49]: > 100 µM (inactive)
- GI50 [50]: > 100 µM (inactive)
- GI50 [51]: > 100 µM (inactive)
